Laboratory results as given in patent US9499493B2, “2,4-pyrimidinediamine compounds and their uses” (Rigel Pharmaceuticals, Inc., priority 2002, dated 2016).

test system: cultured human mast cells (CHMC); test: CHMC low cell density IgE activation: tryptase assay; format: cell-based; conditions: anti-IgE
Experimental: Pellet CHMC cells (980 rpm, 10 min) and resuspend in pre-warmed MT. Add 65 ul of cells to each 96-well plate. Depending on the degranulation activity for each particular CHMC donor, load 1000-1500 cells/well. Mix four times followed by a 1 hr incubation at 37° C. […] Stimulate cells by adding 25 ul of 6× anti-IgE solution to the appropriate plates. Add 25 ul MT to un-stimulated control wells. Mix twice following addition of the anti-IgE. Incubate at 37° C. for 30 minutes. […] Spin plates at 1000 rpm for 10 min to pellet cells. Transfer 25 ul of supernatant to a 96-well black bottom plate and add 100 ul of freshly diluted tryptase substrate solution to each well. Incubate plates at room temperature for 30 min.

Row | Structure (SMILES) | IC50 [nM]
1 | CCOC(=O)CCn1ncc2cc(Nc3ncc(F)c(Nc4ccc5c(c4)OCCO5)n3)ccc21 [R935301, N2-[1-(2-Ethoxycarbonylethyl)indazoline-5-yl]-N4-(3,4-ethylenedioxyphenyl)-5-fluoro-2,4-pyrimidinediamine] | 4050
2 | CCOC(=O)CCn1ncc2cc(Nc3nc(Nc4ccc(OC(C)C)cc4)ncc3F)ccc21 [R935306, N4-[1-(2-Ethoxycarbonylethyl)indazoline-5-yl]-5-fluoro-N2-(4-isopropoxyphenyl)-2,4-pyrimidinediamine] | 345
3 | CC(C)Oc1ccc(Nc2nc(Nc3ccc4c(cnn4CCCO)c3)ncc2F)cc1 [R935307, 5-Fluoro-N2-[1-(3-hydroxypropyl)indazoline-5-yl]-N4-(4-isopropoxyphenyl)-2,4-pyrimidinediamine] | 139
4 | COC(=O)c1ccc(Cn2ncc3ccc(Nc4ncc(F)c(Nc5ccc6c(c5)OCCO6)n4)cc32)c(OC)c1 [R935320, N4-(3,4-Ethylenedioxyphenyl)-5-fluoro-N2-[1-(2-methoxy-4-carbomethoxybenzyl)indazoline-6-yl]-2,4-pyrimidinediamine] | 2770
5 | COC(=O)c1ccc(Cn2ncc3ccc(Nc4ncc(F)c(Nc5cccc(O)c5)n4)cc32)c(OC)c1 [R935321, 5-Fluoro-N4-(3-hydroxyphenyl)-N2-[1-(2-methoxy-4-carbomethoxybenzyl)indazoline-6-yl]-2,4-pyrimidinediamine] | 2990
6 | COc1cc(C(=O)NS(=O)(=O)c2ccccc2C)ccc1Cn1ncc2ccc(Nc3ncc(F)c(Nc4ccc(OC(C)C)cc4)n3)cc21 [R935322, 5-Fluoro-N4-(4-isopropoxyphenyl)-N2-[1-[2-methoxy-4-(o-toluylsulfonamidocarboxy)benzyl]indazoline-6-yl]-2,4-pyrimidinediamine] | 3420
7 | COc1cc(C(=O)NS(=O)(=O)c2ccccc2C)ccc1Cn1ncc2ccc(Nc3ncc(F)c(Nc4ccc5c(c4)OCCO5)n3)cc21 [R935323, N4-(3,4-Ethylenedioxyphenyl)-5-fluoro-N4-[1-[2-methoxy-4-(o-toluylsulfonamidocarboxy)benzyl]indazoline-6-yl]-2,4-pyrimidinediamine] | > 10000
8 | COc1cc(C(=O)NS(=O)(=O)c2ccccc2C)ccc1Cn1ncc2ccc(Nc3ncc(F)c(Nc4cccc(O)c4)n3)cc21 [R935324, 5-Fluoro-N4-(3-hydroxyphenyl)-N2-[1-[2-methoxy-4-(o-toluylsulfonamidocarboxy)benzyl]indazoline-6-yl]-2,4-pyrimidinediamine] | > 10000
9 | COC(=O)c1ccc(Cn2cc3ccc(Nc4ncc(F)c(Nc5cccc(O)c5)n4)cc3n2)c(OC)c1 [R935337, 5-Fluoro-N4-(3-hydroxyphenyl)-N2-[2-(2-methoxy-4-carbomethoxybenzyl)indazoline-6-yl]-2,4-pyrimidinediamine] | > 10000
10 | COc1cc(C(=O)NS(=O)(=O)c2ccccc2C)ccc1Cn1ncc2cc(Nc3ncc(F)c(Nc4ccc5c(c4)OCCO5)n3)ccc21 [R935339, N4-(3,4-Ethylenedioxyphenyl)-5-fluoro-N2-[1-[2-methoxy-4-(o-toluylsulfonamidocarboxy)benzyl]indazoline-5-yl]-2,4-pyrimidinediamine] | > 10000
11 | COc1cc(C(=O)NS(=O)(=O)c2ccccc2C)ccc1Cn1ncc2cc(Nc3ncc(F)c(Nc4cccc(O)c4)n3)ccc21 [R935340, 5-Fluoro-N4-(3-hydroxyphenyl)-N2-[1-[2-methoxy-4-(o-toluylsulfonamidocarboxy)benzyl]indazoline-5-yl]-2,4-pyrimidinediamine] | 3610
12 | COc1ccc(Nc2nc(Nc3ccc4c(cnn4C)c3)ncc2F)c(OC)n1 [R935380, N4-(2,6-Dimethoxy-3-pyridyl)-5-fluoro-N2-[1-methylindazoline-5-yl]-2,4-pyrimidinediamine] | 1610
13 | CNC(=O)COc1cccc(Nc2ncc(F)c(Nc3ccc(OC)c(CN4CCOCC4)c3)n2)c1 [R940314, 5-Fluoro-N2-[3-(methylaminocarbonylmethyleneoxy)phenyl]-N4-[3-(N-morpholinomethylene)-4-methoxyphenyl]-2,4-pyrimidinediamine] | 4200
14 | COc1ccc(Nc2nc(Nc3cc(C)c(O)c(Cl)c3)ncc2F)cc1CN1CCOCC1 [R940316, N2-(3-Chloro-4-hydroxy-5-methylphenyl)-5-fluoro-N4-[3-(N-morpholinomethylene)-4-methoxyphenyl]-2,4-pyrimidinediamine] | 1860
15 | COc1ccc(Nc2nc(Nc3cc(C)c(O)c(Cl)c3)ncc2F)cc1CN1CCNCC1 [R940318, N2-(3-Chloro-4-hydroxy-5-methylphenyl)-5-fluoro-N4-[3-(N-piperazinomethylene)-4-methoxyphenyl]-2,4-pyrimidinediamine] | 3790
16 | CNC(=O)COc1cccc(Nc2ncc(F)c(Nc3ccc(OC)c(CN(C(=O)OC(C)(C)C)C(C)C)c3)n2)c1 [R940319, N4-(3-(N-tert-Butoxycarbonyl-N-iso-propylaminomethylene)-4-methoxyphenyl)-5-fluoro-N2-[3-(methylaminocarbonylmethyleneoxy)phenyl]-2,4-pyrimidinediamine] | > 10000
17 | CNC(=O)COc1cccc(Nc2ncc(F)c(Nc3cnc4c(c3)OC(C)(C)C(=O)N4)n2)c1 [R940345, N4-[(2,2-Dimethyl-4H-5-pyrido[1,4]oxazin-3-one)-7-yl]-5-fluoro-N2-[3-(methylaminocarbonylmethyleneoxy)phenyl]-2,4-pyrimidinediamine] | 1710
18 | COC(=O)c1cc2cc(Nc3ncc(F)c(Nc4ccc5c(c4)NC(=O)C(C)(C)O5)n3)ccc2o1 [R940354, N4-[(2,2-Dimethyl-4H-benzo[1,4]oxazin-3-one)-6-yl]-5-fluoro-N2-(2-methoxycarbonylbenzofur-5-yl)-2,4-pyrimidinediamine] | 115
19 | CNC(=O)COc1cccc(Nc2ncc(F)c(Nc3cnc4c(c3)OCCN4)n2)c1 [R945263, 5-Fluoro-N2-(3-methylaminocarbonylmethyleneoxyphenyl)-N4-[2H-pyrido[3,2-b]-1,4-oxazin-7-yl]-2,4-pyrimidinediamine] | 1640
20 | O=[N+]([O-])c1ccc(NCCO)c(Nc2ccnc(Nc3cc([N+](=O)[O-])ccc3NCCO)n2)c1 [R950156, N2,N4-Bis(2-hydroxyethyleneamino-5-nitrophenyl)-2,4-pyrimidinediamine] | > 10000

Results, then the compound that gave them:

Row | IC50 [nM] | Structure (SMILES)
21 | 244 | CCOC(=O)CCn1ncc2cc(Nc3nc(Nc4cccc(O)c4)ncc3F)ccc21 [R935303, N4-[1-(2-Ethoxycarbonylethyl)indazoline-5-yl]-5-fluoro-N2-(3-hydroxyphenyl)-2,4-pyrimidinediamine]
22 | 2560 | CNC(=O)COc1cccc(Nc2ncc(F)c(Nc3ccc(OC)c(C(=O)NC(C)C)c3)n2)c1 [R940312, 5-Fluoro-N2-[3-(methylaminocarbonylmethyleneoxy)phenyl]-N4-(3-iso-propylaminocarbonyl-4-methoxyphenyl)-2,4-pyrimidinediamine]
23 | > 10000 | CNC(=O)COc1cccc(Nc2ncc(F)c(Nc3ccc(OC)c(CN(C)C)c3)n2)c1 [R940321, N4-(3-N,N-Dimethylaminomethylene-4-methoxyphenyl)-5-fluoro-N2-[3-(methylaminocarbonylmethyleneoxy)phenyl]-2,4-pyrimidinediamine]
24 | 1100 | CNC(=O)COc1cccc(Nc2ncc(F)c(Nc3ccc4c(c3)N(c3ccccn3)CC(C)(C)O4)n2)c1 [R940337, N4-[3-Dihydro-2,2-dimethyl-4-(2-pyridyl)-benzo[1,4]oxazin-6-yl]-5-fluoro-N2-[3-(methylaminocarbonylmethyleneoxy)phenyl]-2,4-pyrimidinediamine]
25 | 142 | CC1(C)Oc2ccc(Nc3nc(Nc4cccc(O)c4)ncc3F)cc2NC1=O [R940346, N4-[(2,2-Dimethyl-4H-benzo[1,4]oxazin-3-one)-6-yl]-5-fluoro-N2-(3-hydroxyphenyl)-2,4-pyrimidinediamine]
26 | 2190 | CC1(C)CN(c2ccccn2)c2cc(Nc3nc(Nc4cccc(O)c4)ncc3F)ccc2O1 [R940348, N4-[3-Dihydro-2,2-dimethyl-4-(2-pyridyl)-benzo[1,4]oxazin-6-yl]-5-fluoro-N2-(3-hydroxyphenyl)-2,4-pyrimidinediamine]
27 | > 10000 | CC(=O)Nc1cccc(N(C(C)=O)c2ncc(F)c(N(C(C)=O)c3cccc(NC(C)=O)c3)n2)c1 [R950244, N2,N4-Bis(3-N-acetylaminophenyl)-5-fluoro-N2,N4-pyrimidinediacetylamine]
28 | > 10000 | CC(=O)Nc1cccc(N(C(C)=O)c2ncc(F)c(N(C(C)=O)c3cccc(N(C(C)=O)C(C)=O)c3)n2)c1 [R950245, N4-(3-N,N-Diacetylaminophenyl)-N2-(3-N-acetylaminopheny)-5-fluoro-N2,N4-pyrimidinediacetylamine]
29 | > 10000 | CC(=O)Nc1cccc(N(C(C)=O)c2nc(N(C(C)=O)c3cccc(N(C(C)=O)C(C)=O)c3)ncc2F)c1 [R950246, N4-(3-N-Acetylaminophenyl)-N2-(3-N,N-diacetylaminopheny)-5-fluoro-N2,N4-pyrimidinediacetylamine]
30 | > 10000 | CC(=O)N(C(C)=O)c1cccc(N(C(C)=O)c2ncc(F)c(N(C(C)=O)c3cccc(N(C(C)=O)C(C)=O)c3)n2)c1 [R950247, N2,N4-Bis(3-N,N-diacetylaminophenyl)-5-fluoro-N2,N4-pyrimidinediacetylamine]
31 | 1960 | CNC(=O)COc1cccc(Nc2ncc(F)c(Nc3ccc4c(c3)C(=O)CCO4)n2)c1 [R950345, N4-(2,3-Dihydro-4-benzypyranon-6-yl)-5-fluoro-N2-[3-(N-methylamino)carbonylmethyleneoxyphenyl]-2,4-pyrimidinediamine]
32 | 66 | CNC(=O)COc1cccc(Nc2ncc(F)c(Nc3ccc4c(c3)C(=NO)CCO4)n2)c1 [R950348, N4-(2,3-Dihydro-4-oxime-benzypyran-6-yl)-5-fluoro-N2-[3-(N-methylamino)carbonylmethyleneoxyphenyl]-2,4-pyrimidinediamine]
